This passage reports TGI and GI50 results from PubChem BioAssay (NCI).

Several values for one entry are separate records, joined by “and”; a condition that tells them apart may be missing. Equal values may be shown once.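 Each compound was tested at five concentrations against cells in 96-well plates for 48 hours. GI50: concentration for 50% inhibition of growth. TGI denotes the concentration required for complete inhibition of growth.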

What all share (experiment): growth of human tumour cells (NCI), 48 h
The test system of test [1] is 786-0 renal.
The test system of test [2] is HOP-62 NSCLC.
The subject of test [3] is HT29 colon.
Test [4] has as its system KM12 colon.
Test [5] deals with MALME-3M melanoma.
Test [6] relates to NCI-H460 lung.
Test [7] concerns RPMI-8226 leukemia.
Test [8] has as its system SK-MEL-5 melanoma.
Test [9] relates to SR leukemia.
In test [10] the test system is UACC-257 melanoma.
Test [11] deals with HS 578T breast.

For the molecule `CC(C)(C1=NC(C(C)(C)C)CO1)C1=N[C@@H](C(C)(C)C)CO1` (stereo not given in full), the TGI in test [1], in test [2], in test [3], in test [4], in test [5] and in [6] was > 100 µM throughout. Moreover, the TGI in [7], in test [8], in test [9] and in test [10] was > 100 µM throughout.
Regarding `COc1ccc(-c2c(/C=N/OCC(=O)O)c3sc4ccccc4n3c2/C=N/OCC(=O)O)cc1`, the TGI in test [1], in test [2], in test [11], in [3], in test [4] and in test [5] was > 50 µM each time. The TGI in test [6], in test [8] and in test [10] was > 50 µM in each case.
For `CC(C)(C)N=C1C(=O)C2(C)CCC1C2(C)C` (stereo not given), the TGI in test [1], in [2], in test [3], in test [4], in [5] and in test [6] was > 100 µM each time. Further, the TGI in [7], in test [8], in test [9] and in test [10] was > 100 µM in each case.
Consider `Cc1c2cc[n+](C)cc2c(C)c2c1[nH]c1ccc(OCC(F)(F)F)cc12`, for which the TGI in test [1] was > 100 µM; in [3] it was 8.14 µM and > 55.1 µM; in [4] it was > 44.8 µM; in [5], 8.25 µM; in [7], 43 µM and > 88 µM; in test [8], 11.2 µM and 7.07 µM. In addition, the TGI in test [9] was 23 µM and > 52.1 µM; in test [10], 20 µM and > 100 µM. The GI50 in [7] is 4.27 µM and 23.7 µM; in [10], 4.02 µM and 14.8 µM.
On to `CN(C)Cc1cc(/C=C/C(=O)c2ccc(Br)cc2)cc(CN(C)C)c1O`, for which the TGI in test [1] was 29.9 µM; in test [2] it was > 100 µM; in test [3], 62.4 µM; in [4] it was 29.6 µM; in test [5], 31.6 µM; in test [6], 42.6 µM. The TGI in test [7] is 26.5 µM; in test [8], 40 µM; in test [10], 33.7 µM.
For the molecule `CSCSCC(CO)NC(=O)/C=C\c1c(C)[nH]c(=O)[nH]c1=O` (stereo not given), the TGI in test [2] was found to be 246 µM; in test [3] it was 270 µM; in test [4], 156 µM; in [5], 76.6 µM; in test [6], 109 µM; in test [7], 239 µM. The figures for the TGI in test [8] and in test [10] were 105 µM and 208 µM, respectively. Moreover, the GI50 in [4] is 10.8 µM.
For the molecule `Cc1cc2ccccc2oc(=O)/c1=N\Nc1ccccc1`, the TGI in [1] is 97 µM; in test [2], 46.7 µM; in test [3] it was > 100 µM; in test [4], > 100 µM; in test [5], > 100 µM; in test [6] it was > 100 µM. Further, the TGI in [7], in test [8], in test [9] and in [10] was > 100 µM in each case.
As to `C=C1c2nc3ccccc3n2C=C(c2ccccc2)N1c1ccc(C)cc1`, the TGI was > 100 µM in test [1]; 56.1 µM in test [4]; > 100 µM in test [5]; > 100 µM in test [6]; > 100 µM in [7]; > 100 µM in test [8]. Moreover, the TGI in test [9] and in test [10] was > 100 µM in each case.
For the molecule `c1ccc(C2N=C(c3ccccn3)C(c3ccccn3)=NC2c2ccccc2)cc1` (stereo not given), the TGI in [1], in test [2], in test [3], in test [4], in test [5] and in test [6] was > 100 µM each time. Besides, the TGI in test [7], in [8] and in [10] was > 100 µM in each case.
On to `COC(=O)c1c(CC(=O)OC(C)C)cc2n(c1=O)Cc1c-2nc2ccccc2c1OC`, for which the TGI in [1], in test [2], in test [3], in test [5], in test [6] and in test [7] was > 100 µM in each case. For the same molecule, the TGI in [8], in [9] and in [10] was > 100 µM in each case.
As to `N/C(=N\N=C/c1c(O)cc(O)cc1O)NO`, the TGI in [2], in test [3], in test [4], in [5], in test [6] and in test [7] was > 100 µM in each case. Besides, the TGI in test [8] and in test [10] was > 100 µM in each case.
As for `O=c1[nH]c(=S)[nH]c2c1CCCN2`, the TGI in [1], in test [2], in test [3], in test [4], in [5] and in test [7] was > 100 µM throughout. Besides, the TGI in test [8], in [9] and in test [10] was > 100 µM in each case.
As to `C=CCCCN(C(=O)c1ccccc1)c1ccc(C(=O)OC)o1`, the TGI in test [1], in [2], in test [11], in [3], in test [4] and in test [5] was > 100 µM throughout. In addition, the TGI in test [6], in [8] and in test [10] was > 100 µM each time.
Consider `Cc1ccc(N2Cc3c(ccc4ccccc34)OP2(=S)N2CCCC2)cc1` (stereo not given), for which the TGI in test [2], in test [3], in [4], in [5], in test [6] and in test [7] was > 100 µM throughout. Besides, the TGI in test [8] and in test [10] was > 100 µM in each case.
Turning to `COc1ccc(-c2nc(-c3cnccn3)n(C/C=C/c3ccccc3)n2)cc1`, the TGI in test [1] was 46.5 µM; in test [2] it was 60.3 µM; in [3], > 100 µM; in [4] it was > 100 µM; in test [6], > 100 µM; in test [7], > 100 µM. In addition, the TGI in test [8], in [9] and in test [10] was > 100 µM throughout.
For `CC1(C)Cc2ccccc2C(C)(Cl)C(=O)N1` (stereo not given), the TGI in test [1], in test [2], in test [3], in test [4], in [5] and in test [6] was > 10 µM in each case. The TGI in test [7], in test [9] and in test [10] was > 10 µM throughout.
Consider `COc1ccc(NCn2nc(CCCCCCCCc3nn(CNc4ccc(OC)cc4)c(=S)o3)oc2=S)cc1`, for which the TGI in [1], in [2], in test [3], in test [4], in test [5] and in test [6] was > 100 µM each time. Also, the TGI in test [7], in test [8] and in test [10] was > 100 µM each time.
On to `O=Cn1c2ccccc2c2ccccc21`, for which the TGI in test [1], in test [2], in [4], in test [5], in test [6] and in [7] was > 100 µM each time. The TGI in test [8], in test [9] and in [10] was > 100 µM in each case.
`COc1cc(/C=C2\N=C(c3ccccc3)N(c3cc4cc(Sc5ccccc5)ccc4[nH]3)C2=O)ccc1O`: the TGI in [1], in test [3], in test [4], in [5], in test [6] and in [8] was > 50 µM in each case. For the same molecule, the values for the TGI in test [9] and in test [10] were 20.4 µM and > 50 µM, respectively.
As for `Oc1c(NCn2nc(CCCCCCCCc3nn(CNc4ccc5ccccc5c4O)c(=S)o3)oc2=S)ccc2ccccc12`, the TGI in test [1], in test [2], in test [3], in test [4], in [5] and in [6] was > 100 µM throughout. Further, the TGI in test [7], in test [8] and in test [10] was > 100 µM throughout.
As to `CC1(C)CC(=O)C2=C(C1)NC(=S)C(C#N)C2c1ccccc1` (stereo not given), the TGI in test [1], in [2], in test [11], in test [3], in test [5] and in test [6] was > 100 µM in each case. The TGI in test [8] and in [10] was > 100 µM throughout.
Turning to `Cc1oc(N)c(S(=O)(=O)/C(C#N)=C/c2ccccc2[N+](=O)[O-])c1C`, the TGI was 92.6 µM in [1]; > 100 µM in test [2]; 35.1 µM in [3]; 73.2 µM in test [4]; > 100 µM in test [5]; > 100 µM in [6]. Also, the TGI in test [7] is 75.2 µM; in test [8], 38.1 µM; in test [9], 40.2 µM; in test [10], > 100 µM.
Take `CCCCn1c(-c2ccccc2)cs/c1=N\NC(=O)Cn1c(C)nc2ccccc21`: the TGI in [1], in test [2], in test [3], in test [4], in [5] and in [6] was > 100 µM each time. The TGI in test [7] is > 100 µM; in test [8], > 100 µM; in test [9], 50.9 µM; in test [10], > 100 µM.
On to `CCC1OC2(C)CC(C#N)(C#N)C1(C#N)C(=N)O2` (stereo not given), for which the TGI in test [1], in [11], in test [4], in test [5], in [8] and in [10] was > 100 µM throughout.
As for `O=c1cc(-c2ccccc2)oc2cc(OCCCCCCCCCCOc3ccc4c(=O)cc(-c5ccccc5)oc4c3)ccc12`, the TGI in test [1], in test [2], in test [3], in test [4], in test [5] and in test [7] was > 100 µM each time. Also, the TGI in test [8], in test [9] and in test [10] was > 100 µM throughout.
Take `CCOC(=O)C1=C(N2CCCC2)C(=O)C(C(=O)OCC)C1` (stereo not given): the TGI in test [1], in test [2], in [4], in [5], in test [6] and in test [7] was > 100 µM throughout. The TGI in [8] and in test [10] was > 100 µM throughout.
Turning to `COC(=O)CCCc1nc2ccccc2nc1N=Nc1ccccc1`, the TGI was > 100 µM in [1]; > 100 µM in test [2]; > 100 µM in test [3]; > 100 µM in test [4]; 74.7 µM in test [5]; > 100 µM in test [6]. The TGI in test [7] is 98.8 µM; in test [8], > 100 µM; in [9], 72.7 µM; in test [10], > 100 µM.
As to `C/C(=N/NC(N)=S)C(CN1CCOCC1)C(C1=C(O)c2ccccc2OC1)c1ccccc1` (stereo not given), the TGI in test [1], in test [3], in [4], in test [5], in [6] and in test [7] was > 100 µM throughout. Moreover, the TGI in test [8], in [9] and in test [10] was > 100 µM each time.
As to `C/C(=N\Nc1nc2cc(F)ccc2s1)c1ccccn1`, the TGI is > 39 µM in test [1]; > 21.9 µM in test [2]; 3.33 µM in test [3]; > 23.4 µM in test [4]; 23 µM in test [5]; > 100 µM in [6]. The TGI was > 100 µM in test [7], 5.49 µM in test [8], > 100 µM in test [9] and > 24.4 µM in test [10].
